Data: ChEMBL document CHEMBL1641551, “Glycosylated nordihydroguaiaretic acids as anti-cancer agents” (Bioorg Med Chem Lett, 2011)
Activity calls are given as the source filed them. No cut-off for these calls is given here.

What was measured:
HT-29 = assay: Cytotoxicity against human HT-29 cells after 3 days by MTT assay; type: functional, cell-based
LNCaP = assay: Cytotoxicity against human LNCAP cells after 3 days by MTT assay; type: functional, cell-based; conditions: 72 h
NCI/ADR-RES = assay: Cytotoxicity against human NCI/ADR-RES cells after 3 days by MTT assay; type: functional, cell-based
[1] = Cytotoxicity against human Hep3B cells after 3 days by MTT assay; type: functional, cell-based, Hep 3B2; conditions: 72 h
MCF7 = assay: Cytotoxicity against human MCF7 cells after 3 days by MTT assay; type: functional, cell-based

| Compound | IC50 (HT-29; HT-29, 72 h) [µM] | IC50 (LNCaP) [µM] | IC50 (NCI/ADR-RES; 72 h) [µM] | IC50 [1] [µM] | IC50 (MCF7; MCF7, 72 h) [µM] | Activity (HT-29) | Activity (NCI/ADR-RES) | Activity (MCF7) |
| --- | --- | --- | --- | --- | --- | --- | --- | --- |
| COc1ccc(C[C@@H](C)[C@@H](C)Cc2ccc(OC)c(OC)c2)cc1OC [TERAMEPROCOL] | ≤ 10 | ≤ 10 | ≤ 10 | ≤ 10 | ≤ 10 | – | – | – |
| C[C@H](Cc1ccc(OCc2cn(CCCCCCO[C@@H]3O[C@H](CO)[C@@H](O)[C@H](O)[C@H]3O)nn2)c(OCc2cn(CCCCCCO[C@@H]3O[C@H](CO)[C@@H](O)[C@H](O)[C@H]3O)nn2)c1)[C@@H](C)Cc1ccc(OCc2cn(CCCCCCO[C@@H]3O[C@H](CO)[C@@H](O)[C@H](O)[C@H]3O)nn2)c(OCc2cn(CCCCCCO[C@@H]3O[C@H](CO)[C@@H](O)[C@H](O)[C@H]3O)nn2)c1 | – | – | – | 83 | – | inactive | inactive | inactive |
| C[C@H](Cc1ccc(OCc2cn(CCO)nn2)c(OCc2cn(CCO)nn2)c1)[C@@H](C)Cc1ccc(OCc2cn(CCO)nn2)c(OCc2cn(CCO)nn2)c1 | – | – | – | – | – | inactive | inactive | inactive |
| C[C@H](Cc1ccc(OCc2cn(CCCCCCO)nn2)c(OCc2cn(CCCCCCO)nn2)c1)[C@@H](C)Cc1ccc(OCc2cn(CCCCCCO)nn2)c(OCc2cn(CCCCCCO)nn2)c1 | – | – | – | – | – | inactive | inactive | inactive |
| C[C@H](Cc1ccc(OCc2cn(CCO[C@@H]3O[C@H](CO)[C@H](O)[C@H](O)[C@H]3O)nn2)c(OCc2cn(CCO[C@@H]3O[C@H](CO)[C@H](O)[C@H](O)[C@H]3O)nn2)c1)[C@@H](C)Cc1ccc(OCc2cn(CCO[C@@H]3O[C@H](CO)[C@H](O)[C@H](O)[C@H]3O)nn2)c(OCc2cn(CCO[C@@H]3O[C@H](CO)[C@H](O)[C@H](O)[C@H]3O)nn2)c1 | – | – | – | – | – | inactive | inactive | inactive |
| C[C@H](Cc1ccc(OCc2cn(CCCCCCO[C@@H]3O[C@H](CO)[C@H](O)[C@H](O)[C@H]3O)nn2)c(OCc2cn(CCCCCCO[C@@H]3O[C@H](CO)[C@H](O)[C@H](O)[C@H]3O)nn2)c1)[C@@H](C)Cc1ccc(OCc2cn(CCCCCCO[C@@H]3O[C@H](CO)[C@H](O)[C@H](O)[C@H]3O)nn2)c(OCc2cn(CCCCCCO[C@@H]3O[C@H](CO)[C@H](O)[C@H](O)[C@H]3O)nn2)c1 | – | – | – | 88 | – | inactive | inactive | inactive |
